Molecules are shown by their SMILES.

The values below come from patent US12595269B2, “Morpholine-like monoamine releasers” (Solvonis Therapeutics Ireland Holdings Limited, priority 2022, dated 2026).

This data set has as its system MDCKII cells. Description: Apparent permeability (Papp AB) in MDCKII cells. The settings on record: MDCKII cells, pH 7.4. It counts as in vitro ADME, Canine. On the procedure: Methods and Procedure: This study was conducted in compliance with previously described procedures to assure data integrity and adherence to GLP regulations. The experiments described herein were designed to evaluate the apparent permeability (Papp) of test compounds at pH 7.4. Additionally, the MDCKII-MDR1 cell line (Madin-Darby Canine Kidney clone II cell line heterologously expressing the human P-glycoprotein transporter) and mock cell line MDCKII were used to determine whether a compound acted as a P-gp substrate, in the absence and in the presence of the potent P-gp inhibitor. Test control items (digoxin, metoprolol, and atenolol) and control P-gp inhibitor (GF120918) stock solution were prepared in DMSO. Bidirectional assays (Apical to Basolateral [AB] and Basolateral to Apical [BA]) were run, in both the absence and presence of P-gp inhibitor GF120918 in MDCKII-MDR1 and mock cell line MDCKII, using as transport buffer HBSSH at a pH of 7.4 (n=3).
Compounds were tested at a single concentration (i.e. at 3 or 10 μM) at one time point (i.e. 60 min). Alternative concentrations or time-points may also be investigated. As reference compounds, digoxin (P-gp substrate), atenolol (low permeable compound) and metoprolol (high permeable compound) were included at a single concentration (e.g., 10 or 25 μM) and at single time point (e.g., 60 min). Digoxin transport was evaluated in two directions (apical-to-basolateral [AB] and basolateral-to-apical [BA]) in the absence and presence of GF120918 or in mock cells, MDCKII (n=3). Atenolol and metoprolol were only tested in the AB direction in absence of GF120918 or in mock cells, MDCKII (n=3). The integrity of the cell monolayer was evaluated after the permeability experiment using the paracellular permeability marker Lucifer yellow (LY) in the apical to basolateral direction in each well.
MDCKII or MDCKII-MDRI cells cultivated using DMEM (high glucose, GlutaMAX™ supplemented with pyruvate, 10% FBS HI and Pen/Strep) and seeded onto microporous PET (Polyethylene Terephthalate) membranes in HTS 96-Multiwell Insert plates at density of ˜175,000-245,000 cells/cm^2 (25000-35000 cells/well; 50 μL/well) in DMEM medium and incubated for 3-4 days at 37° C.-5% CO2. Medium was changed a day before the experiment.
Stock solutions of test items were prepared in DMSO at a concentration of 5 or 10 mM and stored at −20° C. until use. The potent P-gp inhibitor, GF120918 (stock solution 10 mM) and the reference controls digoxin, atenolol, metoprolol (stock solutions 3 or 10 mM) were prepared in DMSO and stored at −20° C. until use.
Donor working solutions of test items and reference controls will be prepared at a concentration of 10 or 25 μM, diluting the stock solutions in HBSSH. Receiver working solutions contained transport buffer only. […]
MDCKII and MDCKII-MDR1 cells were preincubated (37° C., 15 to 30 minutes) in receiver working solutions containing transport buffer on apical (A) and basolateral (B) sides. Following pre-incubation, test items and control items (digoxin) transport were measured in two directions (apical to basolateral [AB]) and basolateral to apical [BA]), and these directions were performed in triplicate sets of wells, in both the absence and presence of […] GF120918 or mock MDCKII cells. […] Transport of permeability reference controls, atenolol and metoprolol, were measured in one direction (apical to basolateral [AB]) (n=3). […]

Consider `CNC(C)Cc1ccc2c(c1)OCO2` (stereo not shown) [MDMA, reference compound], for which the “Permeability Classification” value was “high permeability”.
